Experiment: Effect of ibogaine on QT interval in treated patients
Format: in vivo, human
Settings: stated in words only, no values
Description: A prolonged QT interval is a marker of potential Torsades de Pointes, a serious arrhythmia that can result in death. For reasons that are not apparent, this prolongation increases in opioid addicted patients as compared to healthy individuals. […] It is expected that other compounds that share ibogaine's core structure will have a similar prolongation effect on QT interval. See, U.S. Provisional Patent Application No. 61/945,746 filed Feb. 27, 2014 entitled METHOD FOR ACUTE AND LONG-TERM TREATMENT OF DRUG ADDICTION, which application is incorporated by reference in its entirety.
The effect of ibogaine, ibogaine derivative, or a pharmaceutically acceptable salt and/or solvate thereof on QT interval is evaluated in substance-dependent participants in a randomized, placebo-controlled, double-blind trial. Patients are administered 60 mg or 120 mg of the compound and QT interval is measured.

SMILES: CCC1CC2CC3c4[nH]c5ccc(OC)cc5c4CCN(C2)C13 (stereo not shown) [ibogaine]
- prolongation of the treated patient's QT interval: dose dependent prolongation

— US20240350510A1, “METHODS AND COMPOSITIONS FOR REDUCING TOLERANCE TO OPIOID […] IBOGAINE AND DERIVATIVES THEREOF” (DemeRx, Inc., priority 2014, published 2024)
